The molecules below were run against T1, GR (Homo sapiens, UniProt P04150) (assay: In Vitro GR Luciferase Reporter Assay (antagonist mode, CHO-K1-GR-MMTV-Luc reporter cells)). Conditions: antagonist mode, 10 nM Dexamethasone.
T1 construct: expressed in transfected cells; host or cells: CHO-K1
T1 sequence (P04150 1-777): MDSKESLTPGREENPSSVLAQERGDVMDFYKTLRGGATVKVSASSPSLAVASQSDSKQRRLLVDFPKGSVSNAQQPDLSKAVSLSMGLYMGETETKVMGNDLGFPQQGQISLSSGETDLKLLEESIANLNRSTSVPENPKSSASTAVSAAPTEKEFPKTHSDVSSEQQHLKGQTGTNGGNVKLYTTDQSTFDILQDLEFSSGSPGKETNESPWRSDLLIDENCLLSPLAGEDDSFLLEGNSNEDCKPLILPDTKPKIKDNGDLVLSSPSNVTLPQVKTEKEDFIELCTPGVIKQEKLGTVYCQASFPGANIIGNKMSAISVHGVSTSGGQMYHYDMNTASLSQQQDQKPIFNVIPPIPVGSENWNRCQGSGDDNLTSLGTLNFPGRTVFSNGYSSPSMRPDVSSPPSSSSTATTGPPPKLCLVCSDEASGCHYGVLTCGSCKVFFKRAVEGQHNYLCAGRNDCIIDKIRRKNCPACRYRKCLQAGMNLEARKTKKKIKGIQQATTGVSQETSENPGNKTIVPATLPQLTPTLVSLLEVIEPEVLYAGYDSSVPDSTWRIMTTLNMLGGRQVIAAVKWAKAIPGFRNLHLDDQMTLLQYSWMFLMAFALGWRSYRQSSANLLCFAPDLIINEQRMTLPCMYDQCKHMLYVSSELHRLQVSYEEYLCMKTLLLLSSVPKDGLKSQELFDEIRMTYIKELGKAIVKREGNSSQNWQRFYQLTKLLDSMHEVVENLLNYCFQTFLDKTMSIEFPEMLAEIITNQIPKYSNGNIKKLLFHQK
Assay type: cell-based
Outline: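 CHO-K1-GR-MMTV-Luc cells in phenol red-free DMEM with 10% CSS, stimulated with 10 nM dexamethasone (final) and treated with 8-point 1:5 compound dilutions for about 18-24 h at 37° C. Luciferase measured by OneGlo luminescence; IC50 derived for inhibition of GR activity.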

Q: How did the IC50 turn out when Cn1ncc(S(=O)(=O)N(C2CCC2)[C@H]2CCC3=Cc4c(cnn4-c4ccc(F)cc4)C[C@]3(C(=O)c3cc(C(F)(F)F)ccn3)C2)n1 [Example 256, N-cyclobutyl-N-((4aS,6S)-1-(4-fluorophenyl)-4a-(4-(trifluoromethyl)picolinoyl)-4,4a,5,6,7,8-hexahydro-1H-benzo[f]indazol-6-yl)-2-methyl-2H-1,2,3-triazole-4-sulfonamide] was run?
A: The IC50 was no more than 100 nM.

Q: For Cn1ccc(S(=O)(=O)[C@H]2CCC3=Cc4c(cnn4-c4ccc(F)cc4)C[C@]3(C(=O)c3ncc(C(F)(F)F)s3)C2)n1 [Example 264, ((4aS,6S)-1-(4-fluorophenyl)-6-((1-methyl-1H-pyrazol-3-yl)sulfonyl)-1,4,5,6,7,8-hexahydro-4aH-benzo[f]indazol-4a-yl)(5-(trifluoromethyl)thiazol-2-yl)methanone], which IC50 is on record?
A: Its IC50 is no more than 100 nM.

Q: How did the IC50 turn out when O=C(c1ncc(C(F)(F)F)s1)[C@]12Cc3cnn(-c4ccc(F)cc4)c3C=C1CC[C@H](N(C1CC1)S(=O)(=O)c1ccc(Cl)nc1)C2 [Example 271, 6-chloro-N-cyclopropyl-N-((4aS,6S)-1-(4-fluorophenyl)-4a-(5-(trifluoromethyl)thiazole-2-carbonyl)-4,4a,5,6,7,8-hexahydro-1H-benzo[f]indazol-6-yl)pyridine-3-sulfonamide] was run?
A: The IC50 was no more than 100 nM.

Q: Which IC50 does the source give for O=C(c1cc(F)ccn1)[C@]12Cc3cnn(-c4ccc(F)cc4)c3C=C1CC[C@H](N(CC1CC1)S(=O)(=O)c1ccc(F)cc1)C2 [Example 274, N-(cyclopropylmethyl)-4-fluoro-N-((4aS,6S)-1-(4-fluorophenyl)-4a-(4-fluoropicolinoyl)-4,4a,5,6,7,8-hexahydro-1H-benzo[f]indazol-6-yl)benzenesulfonamide] here?
A: Its IC50 is no more than 100 nM.

Q: How did the IC50 turn out when O=C(c1cc(Cl)ccn1)[C@]12Cc3cnn(-c4ccc(F)cc4)c3C=C1CC[C@H](N(CC1CC1)S(=O)(=O)c1ccc(F)cc1)C2 [Example 275, N-((4aS,6S)-4a-(4-chloropicolinoyl)-1-(4-fluorophenyl)-4,4a,5,6,7,8-hexahydro-1H-benzo[f]indazol-6-yl)-N-(cyclopropylmethyl)-4-fluorobenzenesulfonamide] was run?
A: The IC50 was no more than 100 nM.

Q: Which IC50 does the source give for O=C(c1cc(Cl)ccn1)[C@]12Cc3cnn(-c4ccc(F)cc4)c3C=C1CC[C@H](N(CC1(O)CC1)S(=O)(=O)c1ccc(F)cc1)C2 [Example 276, N-((4aS,6S)-4a-(4-chloropicolinoyl)-1-(4-fluorophenyl)-4,4a,5,6,7,8-hexahydro-1H-benzo[f]indazol-6-yl)-4-fluoro-N-((1-hydroxycyclopropyl)methyl) benzenesulfonamide] here?
A: The IC50 was no more than 100 nM.

Q: For CC(C)N([C@H]1CCC2=Cc3c(cnn3-c3ccc(F)cc3)C[C@]2(C(=O)c2cc(F)ccn2)C1)S(=O)(=O)c1cnn(C)n1 [Example 278, N-((4aS,6S)-1-(4-fluorophenyl)-4a-(4-fluoropicolinoyl)-4,4a,5,6,7,8-hexahydro-1H-benzo[f]indazol-6-yl)-N-isopropyl-2-methyl-2H-1,2,3-triazole-4-sulfonamide], which IC50 is on record?
A: The IC50 was no more than 100 nM.

Q: For CC(C)N(C(=O)C1CCCC1)[C@H]1CCC2=Cc3c(cnn3-c3ccc(F)cc3)C[C@]2(C(=O)c2ncc(C(F)(F)F)s2)C1 [Example 281, N-((4aS,6S)-1-(4-fluorophenyl)-4a-(5-(trifluoromethyl)thiazole-2-carbonyl)-4,4a,5,6,7,8-hexahydro-1H-benzo[f]indazol-6-yl)-N-isopropylcyclopentanecarbox-amide], which IC50 is on record?
A: Its IC50 is no more than 100 nM.

Q: With Cn1ccc(S(=O)(=O)N([C@H]2CCC3=Cc4c(cnn4-c4ccc(F)cc4)C[C@]3(C(=O)c3cc(F)ccn3)C2)[C@H]2C[C@@](C)(O)C2)n1 [Example 284, N-((4aS,6S)-1-(4-fluorophenyl)-4a-(4-fluoropicolinoyl)-4,4a,5,6,7,8-hexahydro-1H-benzo[f]indazol-6-yl)-N-((1s,3R)-3-hydroxy-3-methylcyclobutyl)-1-methyl-1H-pyrazole-3-sulfonamide] as the molecule, how does the IC50 read?
A: Its IC50 is no more than 100 nM.

Q: Which IC50 does the source give for O=C(c1cc(C(F)(F)F)ccn1)[C@]12Cc3cnn(-c4ccc(F)cc4)c3C=C1CC[C@H](N(C1CC1)S(=O)(=O)c1ccc(C(F)(F)F)nc1)C2 [Example 285, N-cyclopropyl-N-((4aS,6S)-1-(4-fluorophenyl)-4a-(4-(trifluoromethyl)picolinoyl)-4,4a,5,6,7,8-hexahydro-1H-benzo[f]indazol-6-yl)-6-(trifluoromethyl)pyridine-3-sulfonamide] here?
A: The IC50 was no more than 100 nM.

Q: O=C(c1ccc(F)cc1)N(C1CC1)[C@H]1CCC2=Cc3c(cnn3-c3ccc(F)cc3)C[C@]2(C(=O)c2ncc(C(F)(F)F)s2)C1 [Example 291, N-cyclopropyl-4-fluoro-N-((4aS,6S)-1-(4-fluorophenyl)-4a-(5-(trifluoromethyl)thiazole-2-carbonyl)-4,4a,5,6,7,8-hexahydro-1H-benzo[f]indazol-6-yl)benzamide] was tested. Which IC50 did it give?
A: The IC50 was 100 to 1000 nM.

Q: Cn1ncc(S(=O)(=O)N(CC2(O)CC2)[C@H]2CCC3=Cc4c(cnn4-c4ccc(F)cc4)C[C@]3(C(=O)c3ncc(C(F)(F)F)s3)C2)n1 [Example 292, N-((4aS,6S)-1-(4-fluorophenyl)-4a-(5-(trifluoromethyl)thiazole-2-carbonyl)-4,4a,5,6,7,8-hexahydro-1H-benzo[f]indazol-6-yl)-N-((1-hydroxycyclopropyl)methyl)-2-methyl-2H-1,2,3-triazole-4-sulfonamide] was tested. Which IC50 did it give?
A: Its IC50 is no more than 100 nM.

Q: Cn1cc(S(=O)(=O)N(CC2CC2)[C@H]2CCC3=Cc4c(cnn4-c4ccc(F)cc4)C[C@]3(C(=O)c3cc(F)ccn3)C2)nn1 [Example 297, N-(cyclopropylmethyl)-N-((4aS,6S)-1-(4-fluorophenyl)-4a-(4-fluoropicolinoyl)-4,4a,5,6,7,8-hexahydro-1H-benzo[f]indazol-6-yl)-1-methyl-1H-1,2,3-triazole-4-sulfonamide] was tested. Which IC50 did it give?
A: The IC50 was no more than 100 nM.

Q: For Cn1cc(S(=O)(=O)N(CC(C)(C)O)[C@H]2CCC3=Cc4c(cnn4-c4ccc(F)cc4)C[C@]3(C(=O)c3ncc(C(F)(F)F)s3)C2)nn1 [Example 301, N-((4aS,6S)-1-(4-fluorophenyl)-4a-(5-(trifluoromethyl)thiazole-2-carbonyl)-4,4a,5,6,7,8-hexahydro-1H-benzo[f]indazol-6-yl)-N-(2-hydroxy-2-methylpropyl)-1-methyl-1H-1,2,3-triazole-4-sulfonamide], which IC50 is on record?
A: The IC50 was no more than 100 nM.

Q: For CC(C)(O)CN([C@H]1CCC2=Cc3c(cnn3-c3ccc(F)cc3)C[C@]2(C(=O)c2cc(C(F)(F)F)ccn2)C1)S(=O)(=O)c1ccc(Cl)nc1 [Example 302, 6-chloro-N-((4aS,6S)-1-(4-fluorophenyl)-4a-(4-(trifluoromethyl)picolinoyl)-4,4a,5,6,7,8-hexahydro-1H-benzo[f]indazol-6-yl)-N-(2-hydroxy-2-methylpropyl)pyridine-3-sulfonamide], which IC50 is on record?
A: Its IC50 is no more than 100 nM.

Q: CC(C)(O)CN([C@H]1CCC2=Cc3c(cnn3-c3ccc(F)cc3)C[C@]2(C(=O)c2ncc(C(F)(F)F)s2)C1)S(=O)(=O)c1ccc(Cl)nc1 [Example 303, 6-chloro-N-((4aS,6S)-1-(4-fluorophenyl)-4a-(5-(trifluoromethyl)thiazole-2-carbonyl)-4,4a,5,6,7,8-hexahydro-1H-benzo[f]indazol-6-yl)-N-(2-hydroxy-2-methylpropyl)pyridine-3-sulfonamide] was tested. Which IC50 did it give?
A: Its IC50 is no more than 100 nM.

Q: With CC(C)(O)CN([C@H]1CCC2=Cc3c(cnn3-c3ccc(F)cc3)C[C@]2(C(=O)c2cc(F)ccn2)C1)S(=O)(=O)c1ccc(Cl)nc1 [Example 304, 6-chloro-N-((4aS,6S)-1-(4-fluorophenyl)-4a-(4-fluoropicolinoyl)-4,4a,5,6,7,8-hexahydro-1H-benzo[f]indazol-6-yl)-N-(2-hydroxy-2-methylpropyl)pyridine-3-sulfonamide] as the molecule, how does the IC50 read?
A: The IC50 was no more than 100 nM.

Q: With Cn1cc(S(=O)(=O)[C@H]2CCC3=Cc4c(cnn4-c4ccc(F)cc4)C[C@]3(C(=O)c3cc(F)ccn3)C2)cn1 [Example 314, ((4aS,6S)-1-(4-fluorophenyl)-6-((1-methyl-1H-pyrazol-4-yl)sulfonyl)-1,4,5,6,7,8-hexahydro-4aH-benzo[f]indazol-4a-yl)(4-fluoropyridin-2-yl)methanone] as the molecule, how does the IC50 read?
A: Its IC50 is no more than 100 nM.

Q: Cn1cnc(S(=O)(=O)N(CC2CC2)[C@H]2CCC3=Cc4c(cnn4-c4ccc(F)cc4)C[C@]3(C(=O)c3cc(C(F)(F)F)ccn3)C2)n1 [Example 316, N-(cyclopropylmethyl)-N-((4aS,6S)-1-(4-fluorophenyl)-4a-(4-(trifluoromethyl)picolinoyl)-4,4a,5,6,7,8-hexahydro-1H-benzo[f]indazol-6-yl)-1-methyl-1H-1,2,4-triazole-3-sulfonamide] was tested. Which IC50 did it give?
A: The IC50 was no more than 100 nM.

Q: Which IC50 does the source give for Cn1cc(S(=O)(=O)[C@H]2CCC3=Cc4c(cnn4-c4ccc(F)cc4)C[C@]3(C(=O)c3cc(Cl)ccn3)C2)cn1 [Example 317, (4-chloropyridin-2-yl)((4aS,6S)-1-(4-fluorophenyl)-6-((1-methyl-1H-pyrazol-4-yl)sulfonyl)-1,4,5,6,7,8-hexahydro-4aH-benzo[f]indazol-4a-yl)methanone] here?
A: Its IC50 is no more than 100 nM.

From US20210122730A1, “GLUCOCORTICOID RECEPTOR MODULATORS” (ORIC Pharmaceuticals, Inc., priority 2017, published 2021)
